The results in this text go back to patent US20240218009A1, “NOVEL FORMS OF CYCLIC DINUCLEOTIDE COMPOUNDS” (Merck Sharp & Dohme LLC, priority 2021, published 2024).

Like-named read-outs stand apart in the source and are kept apart here.

For the series the following is noted: pH 6.0, approx. 20-30 mg/mL, stirred at ambient conditions for minimum 16 hours, precipitate analysed by XRPD.

Method: Equilibrium solubility experiments were conducted by mixing Compound A and the solution of interest at a concentration of approximately 20-30 mg/mL (Table 1). The solution of interest contained either 50 mM L-histidine or phosphate buffer (pH: 5.8<x<6.3). Additional Compound A was added until a cloudy solution was maintained. The samples were stirred at ambient conditions for a minimum of 16 hours. At the conclusion of the solubility measurements, solutions were clarified by centrifugation. The wet precipitated material was transferred to a 96-well transmission XRPD sample plate and allowed to dry to room temperature prior to XRPD analysis.
X-ray powder diffraction patterns for the solid phases of Compound A were generated on a Philips Analytical X'Pert PRO X-ray Diffraction System with a high throughput stage. A Cu K-Alpha radiation source was used. […] The experiments were analyzed at ambient conditions.

For the molecule `Nc1nc2c(ncn2[C@@H]2O[C@@H]3CO[P@@](O)(=S)O[C@H]4[C@H](F)[C@H](n5cnc6c(N)ncnc65)O[C@@H]4CO[P@@](O)(=S)O[C@@H]2[C@@H]3F)c(=O)[nH]1.[Na]` [Crystalline, mono-sodium salt, Monosodium salt of 2-amino-9-[(2R,5R,7R,8S,10R,12aR,14R,15S,15aR,16R)-14-(6-amino-9H-purin-9-yl)-15,16-difluoro-2,10-dihydroxy-2,10-disulfidooctahydro-12H-5,8-methanofuro [3,2-1][1,3,6,9,11,2,10]pentaoxa-diphosphacyclotetradecin-7-yl]-1,9-dihydro-6H-purin-6-one], the “Compound A Terminal Phase” value (50 mM L-histidine buffer) is recorded as “Form 1” and the “Compound A Terminal Phase” value (50 mM phosphate buffer) is reported as “Crystalline mono-”.
